Results from ChEMBL document CHEMBL1201862, “PubChem BioAssay data set” (2004).
One block for each molecule: values may come before it. Activity calls are given as the source filed them.

Columns and labels:
[1] = target: T1, Probable nicotinate-nucleotide adenylyltransferase (Staphylococcus aureus (strain N315), UniProt P65502); assay type: functional, Staphylococcus aureus subsp. aureus N315;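 on IC50 Mean: confirmatory dose-response retesting of NadD inhibitor hits first found in an ultra-high-throughput screen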
[2] = target: T1, Probable nicotinate-nucleotide adenylyltransferase; assay type: functional, Staphylococcus aureus subsp. aureus N315; conditions: read-out: IC50_Mean
[3] = Luminescence Cell-Based Dose Retest to Confirm Inhibitors of Cancer Stem Cells. [Related pubchem assays (depositor defined):AID2717, AID2721]; assay type: functional; conditions: Homo sapiens
[4] = cytotoxicity in HMLE control line with eGFP shRNA, dose response, counter-screen for HMLE_sh_ECad selective toxicity project, cell-based, HMLE_sh_eGFP, luminescence (AID 463074); assay type: functional, Homo sapiens;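 further: HMLE human mammary epithelial cells expressing control shRNA against eGFP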
[5] = target: T2, DNA repair and recombination protein RAD54-like (Homo sapiens, UniProt Q92698); experiment: inhibitors of human RAD54 branch migration, confirmation, biochemical, fluorescence, cherry-picked samples, dose series (AID 651657); assay type: functional
T2 sequence (Q92698 whole entry): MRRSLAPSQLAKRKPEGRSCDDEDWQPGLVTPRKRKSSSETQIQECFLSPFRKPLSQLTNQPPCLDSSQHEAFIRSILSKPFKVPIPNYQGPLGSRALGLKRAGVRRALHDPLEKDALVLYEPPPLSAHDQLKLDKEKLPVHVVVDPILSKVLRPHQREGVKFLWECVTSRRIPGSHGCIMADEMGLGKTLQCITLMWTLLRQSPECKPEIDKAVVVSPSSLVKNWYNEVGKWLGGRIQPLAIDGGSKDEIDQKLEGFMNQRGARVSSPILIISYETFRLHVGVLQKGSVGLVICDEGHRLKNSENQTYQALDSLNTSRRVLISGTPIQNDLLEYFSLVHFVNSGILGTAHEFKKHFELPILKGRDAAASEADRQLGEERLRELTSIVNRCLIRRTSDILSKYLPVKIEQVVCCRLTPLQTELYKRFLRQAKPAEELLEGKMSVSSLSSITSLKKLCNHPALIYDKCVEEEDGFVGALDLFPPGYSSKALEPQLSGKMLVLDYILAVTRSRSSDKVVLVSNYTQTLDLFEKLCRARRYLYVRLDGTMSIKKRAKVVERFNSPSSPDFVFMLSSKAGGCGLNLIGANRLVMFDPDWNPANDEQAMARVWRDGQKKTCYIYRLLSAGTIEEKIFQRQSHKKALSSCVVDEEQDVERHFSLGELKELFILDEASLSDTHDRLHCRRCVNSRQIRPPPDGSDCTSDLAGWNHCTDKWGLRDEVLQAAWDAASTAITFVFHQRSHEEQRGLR

[6] = target: Arf-GAP with SH3 domain, ANK repeat and PH domain-containing protein 1 (Homo sapiens, UniProt Q9ULH1); assay type: functional;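 further: biochemical fluorescence polarization dose–response screen measuring inhibition of ASAP1; ASAP1 GAP domain stimulating GTP hydrolysis by truncated human ARF1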
[7] = target: T3, Corticotropin-releasing factor receptor 2/Corticotropin-releasing factor-binding protein (Homo sapiens, UniProt P24387+Q13324); experiment: activators of CRF receptor 2 with binding protein – uHTS hits, confirmation (AID 602473); assay type: functional; conditions: read-out: EC50_Mean
T3 sequence (Q13324 whole entry): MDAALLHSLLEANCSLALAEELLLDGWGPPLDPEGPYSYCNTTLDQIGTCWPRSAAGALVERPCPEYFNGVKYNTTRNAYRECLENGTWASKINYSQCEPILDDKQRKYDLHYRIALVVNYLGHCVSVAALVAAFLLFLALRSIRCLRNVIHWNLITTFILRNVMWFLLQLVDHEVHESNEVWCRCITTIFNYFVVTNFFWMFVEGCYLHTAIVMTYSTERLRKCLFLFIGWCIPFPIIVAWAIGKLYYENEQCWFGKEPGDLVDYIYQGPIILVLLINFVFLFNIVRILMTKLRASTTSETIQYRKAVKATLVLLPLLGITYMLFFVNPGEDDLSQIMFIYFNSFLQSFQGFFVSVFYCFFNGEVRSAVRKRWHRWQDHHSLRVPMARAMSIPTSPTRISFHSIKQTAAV
T3 sequence (P24387 whole entry): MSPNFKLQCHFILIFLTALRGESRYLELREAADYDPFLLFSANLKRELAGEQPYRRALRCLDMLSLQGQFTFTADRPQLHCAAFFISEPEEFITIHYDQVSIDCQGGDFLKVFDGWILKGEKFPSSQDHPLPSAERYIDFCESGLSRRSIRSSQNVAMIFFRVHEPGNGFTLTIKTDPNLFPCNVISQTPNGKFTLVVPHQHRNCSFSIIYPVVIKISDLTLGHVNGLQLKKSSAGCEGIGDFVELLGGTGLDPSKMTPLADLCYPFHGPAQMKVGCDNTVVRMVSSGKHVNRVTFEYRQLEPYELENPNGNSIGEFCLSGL

[8] = target: T3, Corticotropin-releasing factor receptor 2/Corticotropin-releasing factor-binding protein; experiment: Dose Response confirmation of uHTS hits for small molecule antagonists of the CRF-binding protein and CRF-R2 receptor complex.; assay type: functional; conditions: read-out: IC50_Mean
[9] = Counterscreen for activators of the function of SWI/SNF related, matrix associated, actin dependent regulator of chromatin, subfamily a, member 2 (SMARCA2, BRM): Luminescence-based cell-based high throughput dose response assay to identify non-selective compounds using the VP16 reporter assay.; assay type: functional
[10] = target: SWI/SNF-related matrix-associated actin-dependent regulator of chromatin subfamily A member 2 (Homo sapiens, UniProt P51531); experiment: Luminescence-based cell-based high throughput dose response assay to identify activators of the function of SWI/SNF related, matrix associated, actin dependent regulator of chromatin, subfamily a, member 2 (SMARCA2, BRM).; assay type: functional
[11] = target: T4, DNA repair protein RAD52 homolog (Homo sapiens, UniProt P43351); assay type: functional, biochemical
T4 sequence (P43351 whole entry): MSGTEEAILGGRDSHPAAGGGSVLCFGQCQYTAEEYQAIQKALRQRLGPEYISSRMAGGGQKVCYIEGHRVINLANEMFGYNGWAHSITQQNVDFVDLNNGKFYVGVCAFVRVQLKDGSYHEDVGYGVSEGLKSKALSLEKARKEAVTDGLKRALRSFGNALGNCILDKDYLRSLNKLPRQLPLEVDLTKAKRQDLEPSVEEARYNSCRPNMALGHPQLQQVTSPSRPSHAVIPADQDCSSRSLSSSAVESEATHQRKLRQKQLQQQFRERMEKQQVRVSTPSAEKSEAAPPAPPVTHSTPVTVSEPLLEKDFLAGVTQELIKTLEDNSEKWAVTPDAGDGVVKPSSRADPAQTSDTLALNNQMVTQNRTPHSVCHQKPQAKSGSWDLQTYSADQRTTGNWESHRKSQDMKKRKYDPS

[12] = target: Protein Wnt-3a (Mus musculus, UniProt P27467); experiment: Wnt3a-driven reporter signaling inhibition, dose response, selectivity assay for Gli-SUFU antagonist project, Wnt-LIGHT cells, luminescence (AID 651570); assay type: functional; conditions: read-out: IC50_Mean;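 further: Wnt-LIGHT reporter cells stimulated with conditioned medium from Wnt3a-producing cells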
[13] = target: T5, Rac GTPase-activating protein 1 (Homo sapiens, UniProt Q9H0H5); experiment: MgcRacGAP GTPase-activating activity inhibitors, confirmation, biochemical, ADP Hunter fluorescence, primary and confirmatory (AID 624330); assay type: functional
T5 sequence (Q9H0H5 whole entry): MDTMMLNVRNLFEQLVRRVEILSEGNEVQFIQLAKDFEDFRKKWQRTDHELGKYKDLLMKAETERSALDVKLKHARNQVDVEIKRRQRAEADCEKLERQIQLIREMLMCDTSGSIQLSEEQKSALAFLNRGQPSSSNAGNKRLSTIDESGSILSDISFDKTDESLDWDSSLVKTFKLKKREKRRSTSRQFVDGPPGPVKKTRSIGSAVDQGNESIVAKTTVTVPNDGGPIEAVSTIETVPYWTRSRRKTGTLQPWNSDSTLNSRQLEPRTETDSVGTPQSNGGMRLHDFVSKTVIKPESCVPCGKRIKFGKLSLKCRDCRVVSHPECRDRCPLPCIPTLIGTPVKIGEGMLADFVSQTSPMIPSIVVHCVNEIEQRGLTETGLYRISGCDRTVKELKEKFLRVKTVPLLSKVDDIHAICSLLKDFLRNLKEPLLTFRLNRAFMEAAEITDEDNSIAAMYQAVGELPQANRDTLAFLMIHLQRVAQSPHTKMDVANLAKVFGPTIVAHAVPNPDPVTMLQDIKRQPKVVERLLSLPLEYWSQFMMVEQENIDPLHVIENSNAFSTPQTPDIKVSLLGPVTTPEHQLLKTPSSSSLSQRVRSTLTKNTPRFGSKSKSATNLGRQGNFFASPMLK

[14] = target: Heat shock protein HSP 90-alpha (Homo sapiens, UniProt P07900); assay type: functional, organism-based
[15] = target: T6, Heat shock factor protein 1 (Mus musculus, UniProt P38532); experiment: inhibition of MG132-induced HSE-luciferase signal, confirmation, cell-based, NIH3T3, luminescence, dose retest (AID 2382); assay type: functional;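 further: NIH3T3 fibroblasts with HSF1-driven luciferase reporter stressed by proteasome inhibitor MG132; luminescence from HSF1-driven luciferase expression after 8 hours of MG132 stress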
T6 sequence (P38532 whole entry): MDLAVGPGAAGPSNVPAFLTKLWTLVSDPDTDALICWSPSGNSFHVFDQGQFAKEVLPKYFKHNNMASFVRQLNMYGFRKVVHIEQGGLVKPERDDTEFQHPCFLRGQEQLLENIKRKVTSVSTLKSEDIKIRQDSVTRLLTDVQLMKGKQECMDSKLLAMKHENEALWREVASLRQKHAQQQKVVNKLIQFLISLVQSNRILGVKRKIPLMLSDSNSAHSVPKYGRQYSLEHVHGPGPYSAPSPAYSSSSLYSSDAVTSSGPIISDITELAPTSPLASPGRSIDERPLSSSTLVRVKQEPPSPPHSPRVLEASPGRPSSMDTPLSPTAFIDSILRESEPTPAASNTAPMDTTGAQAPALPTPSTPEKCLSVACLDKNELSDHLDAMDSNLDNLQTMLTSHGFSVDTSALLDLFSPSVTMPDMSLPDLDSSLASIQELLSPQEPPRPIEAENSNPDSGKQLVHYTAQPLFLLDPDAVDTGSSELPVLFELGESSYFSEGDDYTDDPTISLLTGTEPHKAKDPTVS

Sequence of Protein Wnt-3a (P27467 whole entry): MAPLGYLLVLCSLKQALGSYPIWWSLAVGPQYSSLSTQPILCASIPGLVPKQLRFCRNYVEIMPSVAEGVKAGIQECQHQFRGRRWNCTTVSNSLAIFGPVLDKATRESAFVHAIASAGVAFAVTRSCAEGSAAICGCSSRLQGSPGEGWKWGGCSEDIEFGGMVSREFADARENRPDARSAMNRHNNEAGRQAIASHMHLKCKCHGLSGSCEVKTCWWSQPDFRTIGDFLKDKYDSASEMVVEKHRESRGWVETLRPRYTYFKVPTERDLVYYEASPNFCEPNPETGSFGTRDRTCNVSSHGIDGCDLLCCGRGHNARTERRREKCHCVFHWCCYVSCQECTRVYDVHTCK
Sequence of Arf-GAP with SH3 domain, ANK repeat and PH domain-containing protein 1 (Q9ULH1 whole entry, the tested form may be a part): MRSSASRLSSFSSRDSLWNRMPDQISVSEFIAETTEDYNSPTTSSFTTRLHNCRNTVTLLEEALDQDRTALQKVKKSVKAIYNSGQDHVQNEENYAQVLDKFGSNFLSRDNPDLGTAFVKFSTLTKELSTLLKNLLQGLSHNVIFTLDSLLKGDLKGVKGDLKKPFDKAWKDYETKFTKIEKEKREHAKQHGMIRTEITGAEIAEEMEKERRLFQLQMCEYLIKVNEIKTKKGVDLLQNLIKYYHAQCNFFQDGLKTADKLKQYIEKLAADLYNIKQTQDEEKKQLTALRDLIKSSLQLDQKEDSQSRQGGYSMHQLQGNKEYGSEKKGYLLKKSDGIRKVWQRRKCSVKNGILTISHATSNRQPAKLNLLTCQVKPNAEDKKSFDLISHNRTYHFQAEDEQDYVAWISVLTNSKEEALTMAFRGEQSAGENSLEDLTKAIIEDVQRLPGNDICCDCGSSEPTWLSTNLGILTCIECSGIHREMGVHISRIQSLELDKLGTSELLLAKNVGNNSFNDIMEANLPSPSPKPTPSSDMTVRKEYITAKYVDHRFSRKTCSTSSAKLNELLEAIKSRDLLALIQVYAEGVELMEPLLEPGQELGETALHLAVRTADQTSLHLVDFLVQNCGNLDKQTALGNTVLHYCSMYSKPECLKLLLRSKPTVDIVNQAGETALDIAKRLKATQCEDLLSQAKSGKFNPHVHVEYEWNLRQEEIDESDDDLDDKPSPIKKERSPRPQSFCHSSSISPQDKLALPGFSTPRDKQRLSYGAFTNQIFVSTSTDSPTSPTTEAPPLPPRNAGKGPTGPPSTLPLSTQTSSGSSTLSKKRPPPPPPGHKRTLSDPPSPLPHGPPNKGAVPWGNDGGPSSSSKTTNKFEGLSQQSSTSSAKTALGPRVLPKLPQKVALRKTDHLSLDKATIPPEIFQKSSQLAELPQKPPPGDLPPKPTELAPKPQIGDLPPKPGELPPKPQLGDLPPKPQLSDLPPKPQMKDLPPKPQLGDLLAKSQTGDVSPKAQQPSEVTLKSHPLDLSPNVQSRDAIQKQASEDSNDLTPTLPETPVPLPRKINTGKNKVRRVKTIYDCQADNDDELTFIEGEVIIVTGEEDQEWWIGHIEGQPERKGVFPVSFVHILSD
Sequence of SWI/SNF-related matrix-associated actin-dependent regulator of chromatin subfamily A member 2 (P51531 whole entry): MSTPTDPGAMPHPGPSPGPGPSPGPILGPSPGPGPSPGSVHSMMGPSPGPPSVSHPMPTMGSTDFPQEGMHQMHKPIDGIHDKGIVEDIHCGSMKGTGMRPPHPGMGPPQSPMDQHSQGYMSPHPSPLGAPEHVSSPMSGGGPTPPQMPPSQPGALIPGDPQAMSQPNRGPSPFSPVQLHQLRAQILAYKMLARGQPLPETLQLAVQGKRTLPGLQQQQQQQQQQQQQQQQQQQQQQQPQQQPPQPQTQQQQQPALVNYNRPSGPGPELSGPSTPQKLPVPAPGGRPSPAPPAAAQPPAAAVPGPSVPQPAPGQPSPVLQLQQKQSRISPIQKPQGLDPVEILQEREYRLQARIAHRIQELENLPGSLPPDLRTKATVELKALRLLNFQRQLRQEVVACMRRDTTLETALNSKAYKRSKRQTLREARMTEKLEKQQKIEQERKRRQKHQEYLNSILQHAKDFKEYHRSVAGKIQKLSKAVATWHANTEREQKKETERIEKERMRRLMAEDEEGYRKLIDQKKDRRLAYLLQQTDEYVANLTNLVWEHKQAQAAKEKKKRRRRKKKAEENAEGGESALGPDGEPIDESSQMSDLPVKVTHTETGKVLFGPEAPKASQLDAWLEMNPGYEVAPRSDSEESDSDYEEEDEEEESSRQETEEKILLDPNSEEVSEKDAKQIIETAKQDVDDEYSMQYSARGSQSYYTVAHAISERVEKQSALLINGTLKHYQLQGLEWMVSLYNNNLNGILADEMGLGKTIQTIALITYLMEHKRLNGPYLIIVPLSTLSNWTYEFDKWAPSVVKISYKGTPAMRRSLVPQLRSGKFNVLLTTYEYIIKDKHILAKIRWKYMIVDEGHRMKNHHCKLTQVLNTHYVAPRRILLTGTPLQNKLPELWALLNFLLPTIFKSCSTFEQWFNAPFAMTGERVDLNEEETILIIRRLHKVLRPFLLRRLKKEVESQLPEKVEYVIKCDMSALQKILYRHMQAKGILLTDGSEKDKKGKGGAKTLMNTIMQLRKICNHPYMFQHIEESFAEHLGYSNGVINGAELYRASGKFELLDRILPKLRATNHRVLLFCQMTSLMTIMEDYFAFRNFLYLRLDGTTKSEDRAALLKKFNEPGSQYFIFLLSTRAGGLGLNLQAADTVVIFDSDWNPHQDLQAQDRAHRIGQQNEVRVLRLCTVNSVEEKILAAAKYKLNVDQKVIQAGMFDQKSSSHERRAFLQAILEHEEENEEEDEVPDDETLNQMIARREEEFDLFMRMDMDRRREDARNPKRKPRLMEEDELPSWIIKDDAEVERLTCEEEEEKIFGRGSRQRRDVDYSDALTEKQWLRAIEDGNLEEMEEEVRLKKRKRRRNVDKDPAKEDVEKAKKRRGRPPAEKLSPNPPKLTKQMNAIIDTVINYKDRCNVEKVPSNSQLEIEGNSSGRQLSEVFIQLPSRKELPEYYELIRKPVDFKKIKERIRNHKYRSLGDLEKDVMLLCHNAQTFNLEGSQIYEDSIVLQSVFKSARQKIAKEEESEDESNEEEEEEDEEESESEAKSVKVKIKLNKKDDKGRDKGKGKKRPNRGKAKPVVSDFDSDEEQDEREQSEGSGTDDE

SMILES: O=C(Nc1nnc(SCc2ccc(F)cc2)s1)C1Cc2ccccc2CN1C(=O)c1ccco1 (configuration not stated)
IC50 [1]: 13.4 µM (active)
IC50 [2]: 34 µM (active)

SMILES: Cc1ccc(N2C(=O)CC(N(CCc3ccccc3)C(=S)Nc3ccc(N(C)C)cc3)C2=O)cc1 (configuration not stated)
IC50 [1]: 36.8 µM (active)
AC50 [3]: 5.65 µM (active)
AC50 [4]: 154 µM (active)
IC50 [2]: 77.7 µM (active)

SMILES: C=COC(=O)c1sc2nc(C)cc(C)c2c1N
EC50 [9]: > 91.1 µM (inactive)
EC50 [10]: > 91.1 µM (inactive)

SMILES: CN1/C(=C\C=N\c2ccccc2)C(C)(C)c2ccccc21
IC50 [12]: 7.05 µM (active)

SMILES: O=C(NCCNc1ccnc2cc(Cl)ccc12)c1ccccc1F
IC50 [12]: 3.93 µM (active)
EC50 [15]: 39.7 µM (active)

Other lines, results leading:

AC50 [5]: 8.15 µM (active)
SMILES: CCN(CC)CCOc1c(Br)ccc2c1sc1nc3n(c(=O)c12)CCC3

IC50 [6]: 33 µM (inactive)
EC50 [7]: > 53 µM (inactive)
IC50 [8]: > 47.1 µM (inactive)
SMILES: COc1ccc(-n2nnnc2SCC(=O)c2ccc(OC)c(OC)c2)cc1

IC50 [6]: 41 µM (inactive)
SMILES: COC(=O)c1cc(NC(=O)c2ccc(Cn3cc(Cl)cn3)o2)cc(C(=O)OC)c1

AC50 [11]: 1.56 µM (active)
AC50 [5]: 100 µM (inactive)
SMILES: CCN(CC)CCN1CCN(c2cncc(-c3cccc(N)c3)n2)CC1

IC50 [1]: 12.2 µM (active)
IC50 [2]: 45.9 µM (active)
SMILES: CCOC(=O)c1ccccc1N1C(=O)C2Sc3nc(O)sc3C(/C=C/c3ccccc3)C2C1=O (configuration not stated)

IC50 [13]: 27 µM (active)
AC50 [14]: 1.85 µM (active)
SMILES: O=C1C=CC(=O)N1c1ccc(Nc2ccccc2)cc1
